Results on 3 compounds are retold here after paper PMC3939009, “Thrombin inhibitory activity of some polyphenolic compounds” (Medicinal Chemistry Research, 2013).

Assay [1] deals with human thrombin. Nature of the assay: Thrombin-induced platelet aggregation (turbidimetric). The settings on record: compound preincubated with thrombin. The format is cell-based. The method, then: Blood samples in 0.32 % sodium citrate from healthy volunteers without cardiovascular disorders were collected, untreated with antiplatelet drugs. […] Platelets were isolated from PRP using BSA–Sepharose 2B gel filtration method according to Walkowiak et al. ([2000]). […] In these preparations, to nine volumes of thrombin one volume of polyphenolic compounds was added (final thrombin concentration was 15.8 nM). All tested compounds were dissolved in 50 % DMSO to the initial concentration of 10 mM; other solutions of compounds were also prepared in 50 % DMSO (prepared in 50 mM TBS, pH 7.4). […] The platelet aggregation was measured by turbidimetric method (Saluk-Juszczak et al., [2007]) using dual-channel Chrono-log optical aggregometer (Chronolog, USA). […] Platelet suspensions were pre-warmed at 37 °C with stirring.

Assay [2] deals with T1, human thrombin (Homo sapiens, UniProt P00734). Put plainly: Thrombin-induced fibrinogen polymerization. Type of assay: biochemical. Set-up: Thrombin, also known as an active plasma coagulation factor II; purchased Sigma-Aldrich Chemical Co. (St. Louis, MO, USA) T7009. The settings on record: thrombin preincubated with compound, 10 min 37 °C. How it is done:
In these preparations, to nine volumes of thrombin one volume of polyphenolic compounds was added (final thrombin concentration was 15.8 nM). All tested compounds were dissolved in 50 % DMSO to the initial concentration of 10 mM; other solutions of compounds were also prepared in 50 % DMSO (prepared in 50 mM TBS, pH 7.4). […] Polymerization of fibrin was monitored at 595 nm using a 96-well microtiter plate reader. To each reaction well of the microtiter plate, 100 μl of fibrinogen (3 mg/ml) in 50 mM TBS and 5 mM CaCl2, pH 7.4, were added. […] The maximal velocity of the polymerization process (V max, Δm OD/min) for each absorbance curve was determined (Nowak et al., [2007]).

Assay [3] addresses T1, human thrombin. Put plainly: BIAcore (SPR) analysis of binding to immobilized thrombin. Set-up: Thrombin, also known as an active plasma coagulation factor II; purchased Sigma-Aldrich Chemical Co. (St. Louis, MO, USA) T7009. The settings on record: for Kd: read-out: K D, equilibrium dissociation constant; for kon: read-out: k a, association rate; for koff: read-out: k d, dissociation rate; for Response (RU): analyte 1,000 μM, thrombin immobilized on CM5 chip. The method, then: The biosensor assays were performed using the BIAcore 1000 biosensor system. All biosensor analyses were performed with a phosphate-buffered saline (PBS), pH 7.4, as a running buffer. […] The immobilization of thrombin on a biosensor carboxylmethyl dextran surface was performed according to the BIA applications Handbook (BIAcore, [1994]). The process of protein immobilization was performed on a sensor chip CM5 surface by the positively charged functional groups of protein amino acids. The immobilization process consisted of four steps: preconcentration, activation, ligand immobilization and deactivation of the residual NHS esters. […] The temperature during the whole experiment was also constant and was set to 25.0 °C. […] Each of these solutions (10 μl) was injected into an empty sensor chip channel. […] The amount of injected activation mixture was modified, to regulate the amount of immobilized ligand. […] The conditions of the latter experiments were established by numerous pre-tests. The assessed parameters included: the buffer flow rate, the volume of analyte injection, the concentration of analytes, types and concentration of regenerators. […] For each injection of analyte solution, the volume used was 100 μl. After injection of analyte was completed, the dissociation step occurred and the level of the interaction ligand-analyte was measured. During dissociation, the particles non-covalently bound to the ligand were washed out from the working channel. […] To do these calculations, the formulas presented below were used: the association rate […]]; the dissociation rate -d[AB]/dt=kd·[AB]; the equilibrium constants: KA=[AB]/[A]·[B]=ka/kd KD=[A]·[B]/[AB]=kd/ka.
Background: In SPR one partner is held on a chip, and binding of the other changes the refractive index at the surface.

Assay [4] concerns the target T1, human thrombin. Nature of the assay: Analysis of thrombin inhibition parameters (Lineweaver–Burk curves). The format is biochemical. Set-up: Thrombin, also known as an active plasma coagulation factor II; purchased Sigma-Aldrich Chemical Co. (St. Louis, MO, USA) T7009. The settings on record: for k cat: compound at IC50 concentration, k cat = V max/E 0, control 29.1; for Type of inhibition: from Lineweaver–Burk curves; for V max of chromogenic substrate hydrolysis by thrombin / K m of chromogenic substrate hydrolysis by thrombin: thrombin incubated with compound at IC50 concentration; for V max of chromogenic substrate hydrolysis by thrombin: control 30.7; for K m of chromogenic substrate hydrolysis by thrombin: control 158.7. How it is done: Absorbance was monitored every 12 s for 10 min in a 96-well microplate reader. The velocity of reaction was expressed as the increase in product (pNA) over time (∆ μmol/min) using a computer program Mikcroplate Manager® 8 and the extinction coefficient of p-nitroaniline. […] Then, the Lineweaver–Burk ([1934]) curves for thrombin in the presence and in the absence of polyphenol compounds were plotted. The Lineweaver–Burk equation, which is a transformation of the Michaelis–Menten model, looks as follows: 1/V=Km/Vmax·1/[S]+1/Vmax

For assay [5], the target named is T1, human thrombin. Nature of the assay: Amidolytic activity of thrombin (hydrolysis of chromogenic substrate D-Phe-Pip-Arg-pNA). To be noted: at 375 μM substrate concentration; compounds 0.1–1,000 μM, preincubation 10 min 37 °C; read-out: IC50, amidolytic activity of human thrombin. The format is biochemical. Also on record: Thrombin, also known as an active plasma coagulation factor II; purchased Sigma-Aldrich Chemical Co. (St. Louis, MO, USA) T7009; host or cells: purified from human plasma. How it is done: All tested compounds were dissolved in 50 % DMSO to the initial concentration of 10 mM; other solutions of compounds were also prepared in 50 % DMSO (prepared in 50 mM TBS, pH 7.4). The final concentration of DMSO in thrombin samples was 5 %. To prepare thrombin control samples, the same volume of solvent (50 % DMSO prepared in 50 mM TBS, pH 7.4) was added as in the case of the compound volume and warmed for 10 min to 37 °C.
To each reaction well, 40 μl of 3 mM chromogenic substrate was added. To initiate the chromogenic reaction, 280 μl of control thrombin (without tested compounds) or thrombin after preincubation with a polyphenolic compound to every reaction well in the same moment was added. The absorbance value was monitored every 12 s for 10 min. The maximal velocity of the reaction (V max, Δm OD/min) for each absorbance curve was determined. IC50 value (parameter) for every polyphenolic compound from inhibition curves was estimated.

Assay [6] has as its target T1, human thrombin. Nature of the assay: SDS-PAGE analysis of thrombin-induced cross-linked fibrin formation. Also on record: Thrombin, also known as an active plasma coagulation factor II; purchased Sigma-Aldrich Chemical Co. (St. Louis, MO, USA) T7009; host or cells: purified from human plasma. To be noted: cyanin 75 and 750 μM, (+)-catechin 125 and 1,000 μM, (−)-epicatechin 150 and 1,000 μM. The format is biochemical. How it is done: In these preparations, to nine volumes of thrombin one volume of polyphenolic compounds was added (final thrombin concentration was 15.8 nM). All tested compounds were dissolved in 50 % DMSO to the initial concentration of 10 mM; other solutions of compounds were also prepared in 50 % DMSO (prepared in 50 mM TBS, pH 7.4). The final concentration of DMSO in thrombin samples was 5 %. To prepare thrombin control samples, the same volume of solvent (50 % DMSO prepared in 50 mM TBS, pH 7.4) was added as in the case of the compound volume and warmed for 10 min to 37 °C.
The reactions incubated at 37 °C were stopped after 5, 15 and 30 min by adding 150 μl of lysis buffer (0.125 M Tris/HCl, 4 % SDS, 8 M urea, 10 % β-mercaptoethanol, pH 6.8). Samples were subjected to SDS-PAGE (polyacrylamide concentration—7.5 %) using Mini-Protean Electrophoresis Cell (Bio-Rad, Hercules, CA). Proteins were stained with Coomassie Brilliant Blue R250 (CBB).

In general, IC50 refers to the concentration that inhibits the measured activity by half.

Structures are written as SMILES. Like-named read-outs stand apart in the source and are kept apart here.

In the case of `Oc1cc(O)c2c(c1)O[C@H](c1ccc(O)c(O)c1)[C@@H](O)C2` [(+)-Catechin, (+)-catechin], the “Effect on thrombin ability to stimulate platelet aggregation” value (“Effect … to stimulate platelet aggregation” for short) in the assay on human thrombin [1] is “no effect on thrombin ability to stimulate platelets aggregation”. In addition, the “Effect on thrombin ability to induce fibrinogen polymerization” value on human thrombin [2] is reported as “inhibitory effect of polymerization of human fibrinogen was not observed”. Besides, on human thrombin [3] (5 sensorgrams, 50 to 1,000 μM), the “K A, equilibrium association constant” value came to 20300 M⁻¹; the Kd came to 49.2 µM; the kon came to 3.62 M⁻¹ s⁻¹; the koff amounted to 0.000178 s⁻¹. The “Response (RU)” value at human thrombin [3] was determined as 717 RU. Further, at human thrombin [4], the k cat came to 29.5 s⁻¹, the Type of inhibition result is listed as “competitive inhibitors”, the “V max of chromogenic substrate hydrolysis by thrombin” value (shortened to “V max”) is 31.2 10^−6 mol/min and the “K m of chromogenic substrate hydrolysis by thrombin” value is 700.1 10^−6 M. For the same compound, the IC50 at human thrombin [5] came out at 125 µM. Moreover, the “Changes in electrophoresis of fibrinogen treated with preincubated thrombin” value (shortened to “Changes in electrophoresis”) on human thrombin [6] was “no changes were observed”.

For the compound `Oc1cc(O)c2c(c1)O[C@H](c1ccc(O)c(O)c1)[C@H](O)C2` [(−)-Epicatechin, (−)-epicatechin], the “Effect … to stimulate platelet aggregation” value in the assay with human thrombin [1] is reported as “no effect on thrombin ability to stimulate platelets aggregation”. In addition, the “Effect on thrombin ability to induce fibrinogen polymerization” value on human thrombin [2] was “inhibitory effect of polymerization of human fibrinogen was not observed”. On human thrombin [3], the “K A, equilibrium association constant” value came out at 192 M^–1 and the “Response (RU)” value is 431 RU. In addition, at human thrombin [3] (5 sensorgrams, 50 to 1,000 μM), the “K A, equilibrium association constant” value came to 192 M⁻¹; the Kd was 5190 µM; the kon turned out to be 4.37 M⁻¹ s⁻¹; the koff was determined as 0.0227 s⁻¹. Also, at human thrombin [4], the k cat was determined as 27.8 s⁻¹, the Type of inhibition result was “competitive inhibitors”, the “V max” value is 29.4 10^−6 mol/min and the “K m of chromogenic substrate hydrolysis by thrombin” value is reported as 481.5 10^−6 M. In addition, the half-maximal inhibitory concentration (IC50) on human thrombin [5] was 150 µM. On human thrombin [6], the “Changes in electrophoresis” value is on record as “no changes were observed”.

For the compound `OC[C@H]1O[C@@H](Oc2cc3c(O[C@@H]4O[C@H](CO)[C@@H](O)[C@H](O)[C@H]4O)cc(O)cc3[o+]c2-c2ccc(O)c(O)c2)[C@H](O)[C@@H](O)[C@@H]1O` [Cyanin, cyanin], the “Effect … to stimulate platelet aggregation” value in the assay with human thrombin [1] was “no effect on thrombin ability to stimulate platelets aggregation”. In addition, the “Effect on thrombin ability to induce fibrinogen polymerization” value on human thrombin [2] is “inhibitory effect of polymerization of human fibrinogen was not observed”. Moreover, at human thrombin [3], the “K A, equilibrium association constant” value was found to be 115 M^–1 and the “Response (RU)” value turned out to be 827 RU. Also, at human thrombin [3] (5 sensorgrams, 50 to 1,000 μM), the “K A, equilibrium association constant” value is 115 M⁻¹; the Kd was 8630 µM; the kon was found to be 0.95 M⁻¹ s⁻¹; the koff was 0.00824 s⁻¹. In addition, on human thrombin [4], the k cat is 19.7 s⁻¹, the Type of inhibition result is listed as “mixed type of inhibition”, the “V max” value is 20.8 10^−6 mol/min and the “K m of chromogenic substrate hydrolysis by thrombin” value is 344.6 10^−6 M. In addition, the IC50 at human thrombin [5] was determined as 75 µM. The “Changes in electrophoresis” value at human thrombin [6] is “no changes were observed”.
